Reference: US6784172B2, “Processes for preparation of cyclopenta[b][1,4]diazepino[6,7,1-hi]indoles and derivatives” (Wyeth, priority 2000, dated 2004)

melting point [°C] | Structure (SMILES)
111 to 113 | CC(=O)N1CCN2c3c(cccc3C3CCCC32)C1 (racemic) [Example 3, 3-Acetyl-1,2,3,4,8,9,10,10a-octahydro-7bH-cyclopenta[b][1,4]diazepino[6,7,1-hi]indole]
66 to 68 | c1cc2c3c(c1)c1c(n3CCNC2)CCC1 [Example 1, 1,2,3,4,9,10-Hexahydro-8H-cyclopenta[b][4,1]diazepino[6,7,1-hi]indole]
